What all share (assay): Chou-Talalay combination assay, Cell Titer Glo
(In ATP-based viability assays light output follows the ATP content of the culture.)

Assay [1] relates to UM-Chor1 chordoma cell line. The class given is cell-based. To be noted: combination with pyrvinium pamoate, 72 hour incubation.
Assay [2] relates to HCT116 colorectal carcinoma cells. The assay is classed as cell-based. The note with it: combination with pyrvinium pamoate, 72 hour incubation.
Assay [3] concerns Kato-III gastric carcinoma cells. The assay is classed as cell-based. The note with it: Kato-III; combination with pyrvinium pamoate; 72 hour incubation.
For assay [4], the system named is Hs766t pancreatic carcinoma cells. The class given is cell-based. To be noted: combination with pyrvinium pamoate, 72 hour incubation.
For assay [5], the system named is SW13 adrenocortical carcinoma cells. The assay is classed as cell-based. To be noted: combination with pyrvinium pamoate, 72 hour incubation.
Assay [6] deals with NCI-H295R adrenocortical carcinoma cells. The assay is classed as cell-based. To be noted: combination with pyrvinium pamoate, 72 hour incubation.
Assay [7] has as its system CCC-5 cholangiocarcinoma cells. The class given is cell-based. The note with it: combination with pyrvinium pamoate, 72 hour incubation.
Assay [8] deals with Rh41 rhabdomyosarcoma cells. The assay is classed as cell-based. The note with it: combination with pyrvinium pamoate, 72 hour incubation.
In assay [9] the test system is carcinoid tumor cell line STC-1. The assay is classed as cell-based. The note with it: combination with pyrvinium pamoate, 72 hour incubation.
For assay [10], the system named is Rh30 rhabdomyosarcoma cells. The assay is classed as cell-based. The note with it: combination with pyrvinium pamoate, 72 hour incubation.
The subject of assay [11] is BxPC-3 pancreatic carcinoma cells. The note with it: 72 hour incubation; for CI range: combination with pyrvinium pamoate.
The subject of assay [12] is TC-71 Ewing's sarcoma cells. The class given is cell-based. To be noted: combination with pyrvinium pamoate, 72 hour incubation.
The subject of assay [13] is COV362 ovarian carcinoma cells. The assay is classed as cell-based. The note with it: combination with pyrvinium pamoate, 72 hour incubation.
The test system of assay [14] is SK-LMS-1 leiomyosarcoma cells. The class given is cell-based. The note with it: combination with pyrvinium pamoate, 72 hour incubation.
Assay [15] relates to Colo-205 colorectal carcinoma cells. The assay is classed as cell-based. The note with it: combination with pyrvinium pamoate, 72 hour incubation.
The test system of assay [16] is TOV-112D ovarian carcinoma cells. The class given is cell-based. To be noted: 72 hour incubation; for CI range: combination with pyrvinium pamoate.
For assay [17], the system named is Flo-1 esophageal carcinoma cells. The assay is classed as cell-based. The note with it: 72 hour incubation; for CI range: combination with pyrvinium pamoate.
For assay [18], the system named is GIST-1 gastrointestinal stromal tumor cells. The assay is classed as cell-based. The note with it: 72 hour incubation; for CI range: combination with pyrvinium pamoate.
Assay [19] concerns TFK-1 cholangiocarcinoma cells. The class given is cell-based. The note with it: combination with pyrvinium pamoate, 72 hour incubation.
The test system of assay [20] is SNU-16 gastric carcinoma cells. The class given is cell-based. The note with it: 72 hour incubation; for CI range: combination with pyrvinium pamoate.
Assay [21] has as its system TC-32 Ewing's sarcoma cells. The class given is cell-based. To be noted: combination with pyrvinium pamoate, 72 hour incubation.
For assay [22], the system named is OE-33 esophageal carcinoma cells. The assay is classed as cell-based. The note with it: combination with pyrvinium pamoate, 72 hour incubation.
The test system of another assay is LO-68 mesothelioma cells. The assay is classed as cell-based. To be noted: combination with pyrvinium pamoate, 72 hour incubation.
A further assay relates to JU-77 mesothelioma cells. The class given is cell-based. To be noted: combination with pyrvinium pamoate, 72 hour incubation.
The subject of assay [23] is CHP-212 neuroblastoma cells. The assay is classed as cell-based. To be noted: combination with pyrvinium pamoate, 72 hour incubation.
The subject of assay [24] is SK-N-AS neuroblastoma cells. The class given is cell-based.
Assay [25] concerns SK-UT-1B leiomyosarcoma cells. The class given is cell-based. To be noted: combination with pyrvinium pamoate, 72 hour incubation.
Assay [26] concerns SK-UT-1 leiomyosarcoma cells. The class given is cell-based. The note with it: 72 hour incubation.
Assay [27] concerns DMS-114 small cell lung carcinoma cells. The class given is cell-based. To be noted: 72 hour incubation.
Assay [28] has as its system SW-1271 small cell lung carcinoma cells. The class given is cell-based. To be noted: 72 hour incubation.
Setting [29] is: SK-N-AS, combination with pyrvinium pamoate, 72 hour incubation.
Where [30] appears, read: combination with pyrvinium pamoate.

SMILES strings stand for the structures. Several values for one entry are separate records, joined by “and”; a condition that tells them apart may be missing. Identical values can stand only once. Like-named read-outs stand apart in the source and are kept apart here.

For `C#Cc1cccc(Nc2ncnc3cc(OCCOC)c(OCCOC)cc23)c1` [Erlotinib], in assay [1], the CI range was 0.308-0.883.

Regarding `O=c1[nH]cc(F)c(=O)[nH]1` [5-FU, 5-Fluorouracil], the CI range was 0.806-0.886 in assay [2]; 0.328-0.504 and 0.230-0.589 in [4]; 0.506-0.834 in assay [5]; 0.529-0.780 in [6]; 0.319-0.892 in assay [7]; 0.489-0.886 in assay [1]. Besides, the CI range is listed as 0.642-0.831 in assay [8]; 0.596-0.841 in assay [9]; 0.001-0.887 in assay [10]; 0.539-0.785 in assay [11]; 0.409-0.821 in assay [12]; 0.472-0.723 in [13]. For the same molecule, the CI range is given as 0.421-0.814 in assay [14]; 0.094-0.867 in assay [15]; 0.378-0.859 in [17]; 0.168-0.798 in assay [18]; 0.303-0.814 in [19]; 0.547-0.850 in assay [20]. The CI range is reported as 0.337-0.843 in assay [21] and 0.481-0.715 in assay [22]. Further, the “Synergy with pyrvinium pamoate” value in assay [3] and in assay [16] was “No” throughout.

`CCC1=C[C@@H]2CN(C1)Cc1c([nH]c3ccccc13)[C@@](C(=O)OC)(c1cc3c(cc1OC)N(C)[C@H]1[C@@](O)(C(=O)OC)[C@H](OC(C)=O)[C@]4(CC)C=CCN5CC[C@]31[C@@H]54)C2` [Vinorelbine]: the results for the CI range with LO-68 mesothelioma cells and with JU-77 mesothelioma cells were 0.163-0.845 and 0.454-0.717, respectively.

As for `N.N.O=C([O-])C1(C(=O)[O-])CCC1.[Pt+2]` [Carboplatin], the CI range in assay [3] was 0.221-0.887; in [5], 0.408-0.891; in assay [6], 0.190-0.896; in [8], 0.162-0.820; in assay [23], 0.519-0.846; in assay [10], 0.770-0.821. Besides, the CI range in assay [12] was 0.597-0.878; in [13], 0.447-0.837; in [24] (setting [29]), 0.107-0.843; with LO-68 mesothelioma cells, 0.410-0.801; in assay [14], 0.366-0.812; in [16] it was 0.506-0.845. The CI range in [17] is 0.253-0.892; in the assay on JU-77 mesothelioma cells, 0.385-0.853; in assay [20], 0.267-0.860 and 0.261-0.842; in [21], 0.101-0.836; in assay [22] it was 0.647-0.863. The “Synergy with pyrvinium pamoate” value in assay [18] was “No”.

On to `O=P1(NCCCl)OCCCN1CCCl` (centres unmarked) [Ifosfamide], for which, in assay [25], the CI range is reported as 0.285-0.315.

For `CCc1c2c(nc3ccc(OC(=O)N4CCC(N5CCCCC5)CC4)cc13)-c1cc3c(c(=O)n1C2)COC(=O)[C@]3(O)CC` [Irinotecan], the CI range in assay [2] was 0.582-0.878; in assay [3], 0.258-0.892; in assay [5], 0.652-0.827; in assay [6], 0.285-0.855; in assay [1], 0.580-0.772; in assay [8] it was 0.068-0.711. For the same molecule, the CI range in assay [23] is listed as 0.719-0.891; in assay [10] it was 0.324-0.872; in [12] it was 0.466-0.803; in [13], 0.445-0.697; in assay [14] it was 0.362-0.885; in assay [15] it was 0.158-0.866. Further, the CI range is given as 0.414-0.760 in assay [16]; 0.039-0.837 in assay [18]; 0.235-0.705 in assay [25]; 0.612-0.764 in assay [21]; 0.438-0.783 in assay [22]. In addition, the “Synergy with pyrvinium pamoate” value in [11], in assay [17], in assay [26] and in assay [20] was “No” throughout.

With `O=P1(N(CCCl)CCCl)NCCCO1` (centres unmarked) [Cyclophosphamide], the CI range is reported as 0.274-0.867 in [8]; 0.256-0.876 in assay [23]; 0.167-0.751 in [9]; 0.083-0.786 in assay [10]; 0.718-0.722 in assay [12]; “Yes- (0.098-0.858)” in assay [24].

In the case of `Cc1ccc(NC(=O)c2ccc(CN3CCN(C)CC3)cc2)cc1Nc1nccc(-c2cccnc2)n1` [Imatinib], the CI range in assay [18] is 0.203-0.726.

For `CC(=O)O[C@H]1C(=O)[C@@]2(C)[C@H]([C@H](OC(=O)c3ccccc3)[C@]3(O)C[C@H](OC(=O)[C@H](O)[C@@H](NC(=O)c4ccccc4)c4ccccc4)C(C)=C1C3(C)C)[C@]1(OC(C)=O)CO[C@@H]1C[C@@H]2O` [Paclitaxel], the CI range in assay [3] was 0.076-0.898; in assay [4], 0.232-0.830; in assay [5] it was 0.552-0.870; in assay [6] it was 0.571-0.887; in [7], 0.255-0.847 and 0.296-0.785; in [1], 0.573-0.862. Further, the CI range in assay [8] is on record as 0.073-0.876; in [23], 0.545-0.868; in assay [9] it was 0.479-0.873; in [10], 0.362-0.829; in assay [11] it was 0.613-0.899; in assay [12], 0.254-0.721. Further, the CI range in assay [13] is reported as 0.451-0.761; in [24] (setting [29]) it was 0.367-0.857; in assay [14], 0.078-0.847; in [16], 0.104-0.877; in assay [17], 0.640-0.888; in assay [18], 0.399-0.808. The CI range entry in assay [26] (setting [30]) is listed as “(0.089-0.330)”; in assay [19], 0.277-0.894; in [25], 0.262-0.773; in assay [20], 0.178-0.820; in [21], 0.586-0.884; in assay [22], 0.527-0.896.

As to `N.N.[Cl][Pt][Cl]` [Cisplatin], the CI range was 0.386-0.842 in assay [3]; 0.458-0.875 in assay [4]; 0.309-0.886 in [5]; 0.314-0.798 in assay [6]; 0.326-0.892 in [7]; 0.468-0.887 in assay [1]. Also, the CI range is 0.130-0.874 in assay [8]; 0.694-0.756 in [23]; 0.506-0.861 in assay [9]; 0.693-0.877 in [10]; 0.459-0.775 and 0.472-0.882 in assay [11]; 0.329-0.832 in assay [12]. For the same molecule, the CI range was 0.443-0.859 in [13]; 0.130-0.882 in assay [24] (setting [29]); 0.572-0.883 in [27] (setting [30]); 0.014-0.783 in assay [14]; 0.439-0.845 in [16]; 0.177-0.732 in assay [18]. Also, the CI range was 0.568-0.895 in assay [28] (setting [30]); 0.058-0.361 in assay [19]; 0.407-0.742 and 0.337-0.809 in assay [25]; 0.588-0.878 in [21]. The “Synergy with pyrvinium pamoate” value in assay [26] is “No”.

For `COc1cc([C@@H]2c3cc4c(cc3[C@@H](O[C@@H]3O[C@@H]5CO[C@@H](C)O[C@H]5[C@H](O)[C@H]3O)[C@H]3COC(=O)[C@H]23)OCO4)cc(OC)c1O` [Etoposide], the CI range is reported as 0.716-0.836 in [2]; 0.487-0.623 in assay [5]; 0.717-0.864 in assay [6]; 0.763-0.891 in [23]; 0.281-0.794 in assay [9]; 0.677-0.883 in assay [12]. Also, the CI range in assay [24] (setting [29]) is listed as 0.638-0.834; in assay [15] it was 0.107-0.751; in [21], 0.593-0.875. Also, the “Synergy with pyrvinium pamoate” value in assay [27] and in assay [28] was “No” throughout.

In the case of `CC(=O)O[C@@]12CO[C@@H]1C[C@H](O)[C@@]1(C)C(=O)[C@H](O)C3=C(C)[C@@H](OC(=O)[C@H](O)[C@@H](NC(=O)OC(C)(C)C)c4ccccc4)C[C@@](O)([C@@H](OC(=O)c4ccccc4)[C@H]21)C3(C)C` [Docetaxel], the “Synergy with pyrvinium pamoate” value in [16] is given as “No”.

For the origin of these results see US10933061B2 (Shepherd Therapeutics, Inc., priority 2017, dated 2021).
